Experiment [1] concerns Human chronic myelogenous leukemia cells (CML) (K-562). The experiment is described as follows: Number of living cells counted by flow cytometry (FACSort) after D1R agonist. The experiment is classed as cell-based. Particulars: for % of the cells killed: living cells counted 3 days later.
In experiment [2] the test system is Human cutaneous Sezary T-lymphoma cells (HuT-78). Described as above. It is filed as cell-based. To be noted: 10^−3M-10^−6M, 3 days. Here is the method: Human cutaneous Sezary T-lymphoma cells (HUT-78) were seeded in 96 well plates (0.5 ml per well of 0.5 million cells/ml) and A 77636 hydrochloride was added and diluted 1:00 into the wells at starting concentrations of 10^−1M-10^−4M, so that the final concentration range tested was 10^−3M-10^−6M. Afterwards, the microtiter plates were placed in an incubator (37° C., humidified incubator, 5% CO2) for 3 days. Then, the number of living cells was evaluated by flow cytometry (the cells were counted by FACsort for a fixed time length of 1 min, in which 100 microliter of each sample was tested).
Human cutaneous Sezary T-lymphoma cells (HUT-78) were seeded in 96 well plates (0.5 ml per well of 0.5 million cells/ml) and A 68930 hydrochloride was added and diluted 1:00 into the wells at starting concentrations of 10^−1M-10^−4M, so that the final concentration range tested was 10^−3M-10^−6M. Afterwards, the microtiter plates were placed in an incubator (37° C., humidified incubator, 5% CO2) for 3 days. Then, the number of living cells was evaluated by flow cytometry (the cells were counted by FACsort for a fixed time length of 1 min, in which 100 microliter of each sample was tested).
Human cutaneous Sezary T-lymphoma cells (HUT-78) were seeded in 96 well plates (0.5 ml per well of 0.5 million cells/ml) and SKF 38393 hydrobromide was added and diluted 1:00 into the wells at starting concentrations of 10^−1M-10^−4M, so that the final concentration range tested was 10^−3M-10^−6M. Afterwards, the microtiter plates were placed in an incubator (37° C., humidified incubator, 5% CO2) for 3 days. Then, the number of living cells was evaluated by flow cytometry (the cells were counted by FACsort for a fixed time length of 1 min, in which 100 microliter of each sample was tested).
Cell viability was tested afterwards. […]
Cell survival/death was evaluated 3 days later by counting the number of living cells, using flow cytometry.

Experimental findings from patent publication US20080311657A1, “Killing Human Lymphoma and Leukemia Cancer Cells and Tcr-Activated Normal Human Cells By Dopamine D1r Agonists” (priority 2005, published 2008) are described below.

Molecules are shown by their SMILES.

For the compound `Cl.NC[C@@H]1O[C@H](C23CC4CC(CC(C4)C2)C3)Cc2c1ccc(O)c2O` [A 77636 hydrochloride, (1R-cis)-1-(aminomethyl)-3,4-dihydro-3-tricyclo[3.3.1.13,7]dec-1-yl-[1H]-2-benzopyran-5,6-diol hydrochloride], the “Cell death by number of living cells (FIGS. 22-24), in words” value in experiment [1] (10^−3M-10^−6M, 3 days) was “induces marked cell death”. The “% of the cells killed” value is listed as “≈ 48%” in experiment [1] (10^−4M, exposure 1 minute then washed); 60% in experiment [1] (10^−4M, exposure 15 minutes then washed); 76% in experiment [1] (10^−4M, exposure 1 hour then washed). The “Killing, in words” value in experiment [1] (10^−4M, incubation 72 hours) was “no additional value beyond the 1-hour effect”. Moreover, in experiment [1] (10^−4M, exposure 1 min, 15 min, 1 hr or 72 hr), the “Speed of cell death by number of living cells (FIG. 29), in words” value is “very rapid death”. Also, in experiment [2], the “Cell death by number of living cells (FIGS. 13-15), in words” value is reported as “induces marked cell death”.
